The source of these data is patent US12331041B2, “GLP-1 receptor agonists and uses thereof” (Pfizer Inc., priority 2018, dated 2025).

Assay [1] has as its target T1, human GLP-1R (Homo sapiens, UniProt P43220, L260F).
T1 construct: expressed in transfected cells; host or cells: CHO Flp-In T-REx, clonal line C6 (pcDNA5-FRT-TO)
Briefly: CHO GLP-1R Clone C6 - Assay 2 (HTRF cAMP agonist assay). The assay is classed as cell-based. The note with it: for EC50: CHO clone C6, low GLP-1R density, cAMP, geometric mean; for Emax: CHO clone C6, relative to saturating full agonist GLP-1 (1 μM), arithmetic mean. (In TR-FRET formats the signal depends on donor and acceptor labels being close together.)

Assay [2] deals with T2, human GLP-1R (Homo sapiens, UniProt P43220, G168S).
T2 construct: expressed in transfected cells
T2 sequence (P43220 24-463 G168S): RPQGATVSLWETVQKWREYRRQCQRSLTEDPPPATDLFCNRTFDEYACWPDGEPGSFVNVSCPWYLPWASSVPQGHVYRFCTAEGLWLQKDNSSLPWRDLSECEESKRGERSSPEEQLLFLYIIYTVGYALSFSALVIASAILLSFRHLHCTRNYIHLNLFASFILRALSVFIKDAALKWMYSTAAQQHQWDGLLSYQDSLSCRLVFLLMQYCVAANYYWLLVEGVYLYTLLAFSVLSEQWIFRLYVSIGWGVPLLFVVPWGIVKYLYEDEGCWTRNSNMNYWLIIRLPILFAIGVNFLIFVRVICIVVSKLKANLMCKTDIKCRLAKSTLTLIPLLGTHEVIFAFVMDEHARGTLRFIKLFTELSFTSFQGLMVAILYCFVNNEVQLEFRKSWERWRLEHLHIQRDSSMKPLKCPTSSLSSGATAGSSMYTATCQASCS
Briefly: CHO GLP-1R Clone H6 - Assay 1 (HTRF cAMP agonist assay). Format: cell-based. The following applies: for EC50: CHO Clone H6, high GLP-1R density, cAMP, geometric mean; for Emax: CHO Clone H6, relative to saturating full agonist GLP-1 7-36 (1 μM), arithmetic mean. A digest of the protocol:
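CHO Clone H6 cells stably expressing human GLP-1R (G168S) were plated 48 h, then given compound for 30 min at 37° C in HBSS/0.1% BSA/HEPES with 100 μM IBMX and 1% DMSO. cAMP was measured by HTRF against a standard curve.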

Usually EC50 stands for the concentration needed to bring the measured effect to its halfway point. One may read the Emax as the greatest response seen or fitted, relative to the assay's reference.

The structures appear in SMILES notation. Structures can show the parent of a compound that is named as a salt.

T1 sequence (P43220 24-463 L260F): as the sequence (P43220 24-463 G168S) above, with S145G, L237F counted along it

As to `Cn1cncc1Cn1c(CN2CCC(c3nccnc3OCc3ccc(Cl)cc3F)CC2)nc2ccc(C(=O)O)cc21` [Example 26, 2-[(4-{3-[(4-chloro-2-fluorobenzyl)oxy]pyrazin-2-yl}piperidin-1-yl)methyl]-1-[(1-methyl-1H-imidazol-5-yl)methyl]-1H-benzimidazole-6-carboxylic acid, trifluoroacetate salt], at human GLP-1R [1], a half-maximal effect (EC50) was put at 38 nM and the maximum response (Emax) came to 86%. At human GLP-1R [2], this compound yielded an EC50 of 5.1 nM and an Emax of 86%.
As for `CCn1cncc1Cn1c(CN2CCC(c3nccnc3OCc3ccc(C#N)cc3F)CC2)nc2ccc(C(=O)O)cc21` [Example 27, 2-[(4-{3-[(4-cyano-2-fluorobenzyl)oxy]pyrazin-2-yl}piperidin-l-yl)methyl]-1-[(1-ethyl-1H-imidazol-5-yl)methyl]-1H-benzimidazole-6-carboxylic acid, trifluoroacetate salt], the values for the EC50 at human GLP-1R [1] and on human GLP-1R [2] were 16 nM and 0.84 nM, respectively. Besides, the values for the Emax on human GLP-1R [1] and at human GLP-1R [2] were 85% and 86%, respectively.
The corresponding values for `Cn1c(CN2CCC(c3nccnc3OCc3ccc(Cl)cc3F)CC2)nc2ncc(C(=O)O)cc21` [Example 30, 2-[(4-{3-[(4-chloro-2-fluorobenzyl)oxy]pyrazin-2-yl}piperidin-1-yl)methyl]-1-methyl-1H-imidazo[4,5-b]pyridine-6-carboxylic acid, hydrochloride salt] are 2800 nM, 140 nM, 110% and 79%.
The corresponding values for `O=C(O)c1ccc2nc(CN3CCN(c4cccnc4OCc4ccc(Cl)cc4F)CC3)n(C[C@@H]3CCO3)c2c1` [Example 33, Ammonium 2-[(4-{2-[(4-chloro-2-fluorobenzyl)oxy]pyridin-3-yl}piperazin-1-yl)methyl]-1-[(2S)-oxetan-2-ylmethyl]-1H-benzimidazole-6-carboxylate] are 84 nM, 3.1 nM, 110% and 93%.
As to `Cn1cncc1Cn1c(C2CC23CCN(c2cccc(OCc4ccc(C#N)cc4F)n2)CC3)nc2ccc(C(=O)O)cc21` (stereo not drawn) [Example 37, 2-(6-{6-[(4-cyano-2-fluorobenzyl)oxy]pyridin-2-yl}-6-azaspiro[2.5]oct-1-yl)-1-[(1-methyl-1H-imidazol-5-yl)methyl]-1H-benzimidazole-6-carboxylic acid, trifluoroacetate salt], the 50% effective concentration (EC50) at human GLP-1R [1] came to 190 nM; on human GLP-1R [2], 9.3 nM. The Emax on human GLP-1R [1] turned out to be 92%; at human GLP-1R [2], 88%.
The corresponding values for `CCn1cncc1Cn1c(C2CC23CCN(c2nc(OCc4ccc(Cl)cc4F)ncc2F)CC3)nc2ccc(C(=O)O)cc21` (stereo not drawn) [Example 39, 2-(6-{2-[(4-chloro-2-fluorobenzyl)oxy]-5-fluoropyrimidin-4-yl}-6-azaspiro[2.5]oct-1-yl)-1-[(1-ethyl-1H-imidazol-5-yl)methyl]-1H-benzimidazole-6-carboxylic acid, trifluoroacetate salt, from P7] are 29 nM, 1.6 nM, 95% and 90%.
The corresponding values for `Cn1c(C2CC23CCN(c2nc(OCc4ccc(Cl)cc4F)ncc2F)CC3)nc2ccc(C(=O)O)nc21` (stereo not drawn) [Example 40, 2-(6-{2-[(4-chloro-2-fluorobenzyl)oxy]-5-fluoropyrimidin-4-yl}-6-azaspiro[2.5]oct-1-yl)-3-methyl-3H-imidazo[4,5-b]pyridine-5-carboxylic acid, trifluoroacetate salt, from P7] are 2000 nM, 150 nM, 100% and 77%.
At human GLP-1R [1], `O=C(O)c1ccc2nc(C3CC34CCN(c3nc(OCc5ccc(Cl)cc5F)ncc3F)CC4)n(Cc3cocn3)c2c1` (stereo not drawn) [Example 43, 2-(6-{2-[(4-chloro-2-fluorobenzyl)oxy]-5-fluoropyrimidin-4-yl}-6-azaspiro[2.5]oct-1-yl)-1-(1,3-oxazol-4-ylmethyl)-1H-benzimidazole-6-carboxylic acid, trifluoroacetate salt, from P7] gave an EC50 of 250 nM and an Emax of 70%. On human GLP-1R [2], a half-maximal response (EC50) required 13 nM and the Emax is 75%.
The corresponding values for `O=C(O)c1ccc2nc(C3CC34CCN(c3nc(OCc5ccc(Cl)cc5F)ncc3F)CC4)n(Cc3cnco3)c2c1` (stereo not drawn) [Example 45, 2-(6-{2-[(4-chloro-2-fluorobenzyl)oxy]-5-fluoropyrimidin-4-yl}-6-azaspiro[2.5]oct-1-yl)-1-(1,3-oxazol-5-ylmethyl)-1H-benzimidazole-6-carboxylic acid, trifluoroacetate salt, from P7] are 230 nM, 83%, 12 nM and 72%.
The corresponding values for `Cn1c(C2CC23CCN(c2nc(OCc4ccc(C#N)cc4F)c(F)cc2F)CC3)nc2ccc(C(=O)O)cc21` (stereo not drawn) [Example 59, 2-(6-{6-[(4-cyano-2-fluorobenzyl)oxy]-3,5-difluoropyridin-2-yl}-6-azaspiro[2.5]oct-1-yl)-1-methyl-1H-benzimidazole-6-carboxylic acid, trifluoroacetate salt] are 120 nM, 85%, 6.8 nM and 80%.
The corresponding values for `Cn1cnnc1Cn1c(C2CC23CCN(c2nc(OCc4ccc(Cl)cc4F)c(F)cc2F)CC3)nc2ccc(C(=O)O)cc21` (stereo not drawn) [Example 60, 2-(6-{6-[(4-chloro-2-fluorobenzyl)oxy]-3,5-difluoropyridin-2-yl}-6-azaspiro[2.5]oct-1-yl)-1-[(4-methyl-4H-1,2,4-triazol-3-yl)methyl]-1H-benzimidazole-6-carboxylic acid, trifluoroacetate salt] are 110 nM, 110%, 5 nM and 91%.
For `N#Cc1ccc(COc2nc(N3CCC4(CC3)CC4c3nc4ccc(C(=O)O)cc4n3Cc3ncco3)c(F)cc2F)c(F)c1` (stereo not drawn) [Example 61, 2-(6-{6-[(4-cyano-2-fluorobenzyl)oxy]-3,5-difluoropyridin-2-yl}-6-azaspiro[2.5]oct-1-yl)-1-(1,3-oxazol-2-ylmethyl)-1H-benzimidazole-6-carboxylic acid, trifluoroacetate salt], at human GLP-1R [1], the EC50 was found to be 26 nM and the Emax amounted to 74%. At human GLP-1R [2], this compound registered an EC50 of 1.1 nM and an Emax of 68%.
The corresponding values for `O=C(O)c1ccc2nc(CN3CCC(c4ccnc(OCc5ccc(Cl)cc5F)n4)CC3)n(C[C@@H]3CCO3)c2c1` [Example 62, 2-[(4-{2-[(4-Chloro-2-fluorobenzyl)oxy]pyrimidin-4-yl}piperidin-1-yl)methyl]-1-[(2S)-oxetan-2-ylmethyl]-1H-benzimidazole-6-carboxylic acid] are 110 nM, 98%, 4.4 nM and 86%.
For the compound `CCn1nncc1Cn1c(CN2CCC(c3ccnc(OCc4ccc(Cl)cc4F)n3)CC2)nc2ccc(C(=O)O)cc21` [Example 64, 2-[(4-{2-[(4-chloro-2-fluorobenzyl)oxy]pyrimidin-4-yl}piperidin-1-yl)methyl]-1-[(1-ethyl-1H-1,2,3-triazol-5-yl)methyl]-1H-benzimidazole-6-carboxylic acid], on human GLP-1R [1], the 50% effective concentration (EC50) amounted to 100 nM and the Emax was found to be 100%. Also, on human GLP-1R [2], the response was half-maximal at 24 nM (EC50) and the maximum response (Emax) was found to be 96%.
The corresponding values for `COCCn1c(CN2CCC(c3ccnc(OCc4ccc(Cl)cc4F)n3)CC2)nc2ccc(C(=O)O)cc21` [Example 65, 2-[(4-{2-[(4-chloro-2-fluorobenzyl)oxy]pyrimidin-4-yl}piperidin-1-yl)methyl]-1-(2-methoxyethyl)-1H-benzimidazole-6-carboxylic acid, hydrochloride salt] are 1700 nM, 110%, 88 nM and 85%.
The corresponding values for `O=C(O)c1ccc2nc(CN3CCC(c4ccnc(OCc5ccc(Cl)cc5F)n4)CC3)n(C[C@@H]3CCO3)c2n1` [Example 67, ammonium 2-[(4-{2-[(4-chloro-2-fluorobenzyl)oxy]pyrimidin-4-yl}piperidin-l-yl)methyl]-3-[(2S)-oxetan-2-ylmethyl]-3H-imidazo[4,5-b]pyridine-5-carboxylate] are 52 nM, 120%, 3.3 nM and 90%.
The corresponding values for `O=C(O)c1ccc2nc(CN3CCC(c4ccnc(OCc5ccc(Cl)cc5F)n4)CC3)n(Cc3ncco3)c2c1` [Example 68, 2-[(4-{2-[(4-chloro-2-fluorobenzyl)oxy]pyrimidin-4-yl}piperidin-1-yl)methyl]-1-(1,3-oxazol-2-ylmethyl)-1H-benzimidazole-6-carboxylic acid, trifluoroacetate salt] are 310 nM, 92%, 8.3 nM and 77%.
With `C[C@H]1CN(c2nc(OCc3ccc(Cl)cc3F)ncc2F)CCN1Cc1nc2ccc(C(=O)O)cc2n1C[C@@H]1CCO1` [Example 69, Ammonium 2-{[(2S)-4-{2-[(4-chloro-2-fluorobenzyl)oxy]-5-fluoropyrimidin-4-yl}-2-methylpiperazin-1-yl]methyl}-1-[(2S)-oxetan-2-ylmethyl]-1H-benzimidazole-6-carboxylate], at human GLP-1R [1], a half-maximal response (EC50) required 18 nM and the Emax was found to be 110%. On human GLP-1R [2], this compound yielded an EC50 of 0.91 nM and an Emax of 89%.
